According to publication PMC4979471 (Cell Death Discovery, 2015):
Read-outs that look alike come from different tables or passages of the source.

Columns and labels:
Assay in all cases: Kinase selectivity, P33-radiolabeled assay
Type in all cases: biochemical
Conditions in all cases: 10 μM ATP
CDK6/cyclin D3 = molecular target: T1, CDK6/cyclin D3 (Homo sapiens, UniProt Q00534)
T1 construct: purchased Reaction Biology Corp
Outline: (§1)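 Values show % enzyme activity normalised to DMSO vehicle. They come from one 10 μM compound concentration run twice, at an ATP level of 10 μM.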

CLK4 = molecular target: T2, CLK4 (Homo sapiens, UniProt Q9HAZ1)
T2 construct: purchased Reaction Biology Corp
T2 sequence (Q9HAZ1 whole entry): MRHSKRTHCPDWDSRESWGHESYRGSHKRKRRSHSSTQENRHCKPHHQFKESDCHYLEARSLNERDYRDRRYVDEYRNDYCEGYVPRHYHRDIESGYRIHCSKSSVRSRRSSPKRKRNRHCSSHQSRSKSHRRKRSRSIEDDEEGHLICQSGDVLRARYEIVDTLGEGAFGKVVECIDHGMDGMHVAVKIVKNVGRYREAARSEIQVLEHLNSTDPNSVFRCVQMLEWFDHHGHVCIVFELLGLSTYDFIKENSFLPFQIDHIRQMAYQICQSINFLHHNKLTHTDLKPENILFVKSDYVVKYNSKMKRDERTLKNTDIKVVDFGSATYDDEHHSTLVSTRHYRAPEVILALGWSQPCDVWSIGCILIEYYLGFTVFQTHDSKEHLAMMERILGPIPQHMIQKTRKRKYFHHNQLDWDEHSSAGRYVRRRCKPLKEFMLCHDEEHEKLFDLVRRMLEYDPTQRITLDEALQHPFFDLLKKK
Outline: as §1

KDR/VEGFR2 = molecular target: T3, KDR/VEGFR2 (Homo sapiens, UniProt P35968)
T3 construct: purchased Reaction Biology Corp
T3 sequence (P35968 20-1356): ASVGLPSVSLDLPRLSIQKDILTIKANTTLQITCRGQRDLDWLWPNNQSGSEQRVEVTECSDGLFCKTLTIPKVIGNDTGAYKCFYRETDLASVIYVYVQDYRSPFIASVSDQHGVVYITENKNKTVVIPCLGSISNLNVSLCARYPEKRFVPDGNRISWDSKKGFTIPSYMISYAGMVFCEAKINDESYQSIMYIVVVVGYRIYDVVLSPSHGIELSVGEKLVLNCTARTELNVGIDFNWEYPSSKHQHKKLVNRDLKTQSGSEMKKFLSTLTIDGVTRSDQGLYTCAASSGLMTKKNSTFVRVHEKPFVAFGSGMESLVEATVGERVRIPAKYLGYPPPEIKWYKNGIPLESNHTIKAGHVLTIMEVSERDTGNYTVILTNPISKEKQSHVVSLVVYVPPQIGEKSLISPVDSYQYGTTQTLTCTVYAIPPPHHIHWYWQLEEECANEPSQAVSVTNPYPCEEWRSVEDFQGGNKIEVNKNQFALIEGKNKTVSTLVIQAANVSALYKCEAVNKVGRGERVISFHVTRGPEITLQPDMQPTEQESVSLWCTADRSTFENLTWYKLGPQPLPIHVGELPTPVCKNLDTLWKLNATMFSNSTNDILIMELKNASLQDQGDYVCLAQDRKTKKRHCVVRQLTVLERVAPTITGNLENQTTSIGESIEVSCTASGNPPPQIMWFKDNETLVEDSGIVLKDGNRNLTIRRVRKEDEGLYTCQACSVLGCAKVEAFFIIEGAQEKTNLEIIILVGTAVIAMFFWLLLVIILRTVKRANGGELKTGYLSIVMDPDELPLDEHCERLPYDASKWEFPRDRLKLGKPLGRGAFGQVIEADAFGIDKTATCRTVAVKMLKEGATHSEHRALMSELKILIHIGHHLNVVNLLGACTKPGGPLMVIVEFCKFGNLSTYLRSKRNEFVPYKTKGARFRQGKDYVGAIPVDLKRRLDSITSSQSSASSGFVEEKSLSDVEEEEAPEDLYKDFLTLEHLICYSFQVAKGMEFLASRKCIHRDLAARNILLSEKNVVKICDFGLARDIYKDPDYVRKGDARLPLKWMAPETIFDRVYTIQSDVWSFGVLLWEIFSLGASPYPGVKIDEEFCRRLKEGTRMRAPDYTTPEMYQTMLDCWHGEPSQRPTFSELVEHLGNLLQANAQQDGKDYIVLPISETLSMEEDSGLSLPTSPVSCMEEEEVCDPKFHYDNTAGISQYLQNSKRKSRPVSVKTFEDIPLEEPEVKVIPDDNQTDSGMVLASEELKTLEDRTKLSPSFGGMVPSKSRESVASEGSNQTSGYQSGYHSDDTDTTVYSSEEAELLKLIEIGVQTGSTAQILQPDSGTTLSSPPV
Outline: as §1

LOK/STK10 = molecular target: T4, LOK/STK10 (Homo sapiens, UniProt O94804)
T4 construct: purchased Reaction Biology Corp
T4 sequence (O94804 whole entry): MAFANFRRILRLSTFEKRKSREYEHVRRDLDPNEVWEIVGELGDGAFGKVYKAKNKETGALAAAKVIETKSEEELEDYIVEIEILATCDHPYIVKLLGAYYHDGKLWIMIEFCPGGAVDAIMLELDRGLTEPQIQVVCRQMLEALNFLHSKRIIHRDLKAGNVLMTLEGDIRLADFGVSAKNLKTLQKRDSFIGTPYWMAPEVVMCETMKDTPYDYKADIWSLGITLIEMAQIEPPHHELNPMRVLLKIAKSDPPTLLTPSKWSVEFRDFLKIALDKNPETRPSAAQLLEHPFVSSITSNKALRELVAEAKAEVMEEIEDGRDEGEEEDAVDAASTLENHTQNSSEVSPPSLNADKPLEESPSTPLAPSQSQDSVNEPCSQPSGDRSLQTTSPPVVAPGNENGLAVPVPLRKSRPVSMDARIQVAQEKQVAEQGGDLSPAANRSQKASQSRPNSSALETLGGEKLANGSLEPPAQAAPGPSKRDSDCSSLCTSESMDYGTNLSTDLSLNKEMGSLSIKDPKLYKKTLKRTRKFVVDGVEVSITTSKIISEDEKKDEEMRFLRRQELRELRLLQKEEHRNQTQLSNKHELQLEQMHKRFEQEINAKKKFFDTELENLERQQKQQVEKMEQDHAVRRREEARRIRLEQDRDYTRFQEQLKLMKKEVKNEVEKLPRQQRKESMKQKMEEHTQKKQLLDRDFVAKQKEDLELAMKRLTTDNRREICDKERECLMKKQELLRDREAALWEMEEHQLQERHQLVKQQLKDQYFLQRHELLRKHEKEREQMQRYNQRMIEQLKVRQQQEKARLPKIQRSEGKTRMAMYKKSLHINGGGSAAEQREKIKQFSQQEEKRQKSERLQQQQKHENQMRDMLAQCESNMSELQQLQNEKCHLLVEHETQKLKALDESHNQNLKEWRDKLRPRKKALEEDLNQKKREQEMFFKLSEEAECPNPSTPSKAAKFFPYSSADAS
Outline: as §1

NEK2 = molecular target: T5, NEK2 (Homo sapiens, UniProt P51955)
T5 construct: purchased Reaction Biology Corp
T5 sequence (P51955 1-445): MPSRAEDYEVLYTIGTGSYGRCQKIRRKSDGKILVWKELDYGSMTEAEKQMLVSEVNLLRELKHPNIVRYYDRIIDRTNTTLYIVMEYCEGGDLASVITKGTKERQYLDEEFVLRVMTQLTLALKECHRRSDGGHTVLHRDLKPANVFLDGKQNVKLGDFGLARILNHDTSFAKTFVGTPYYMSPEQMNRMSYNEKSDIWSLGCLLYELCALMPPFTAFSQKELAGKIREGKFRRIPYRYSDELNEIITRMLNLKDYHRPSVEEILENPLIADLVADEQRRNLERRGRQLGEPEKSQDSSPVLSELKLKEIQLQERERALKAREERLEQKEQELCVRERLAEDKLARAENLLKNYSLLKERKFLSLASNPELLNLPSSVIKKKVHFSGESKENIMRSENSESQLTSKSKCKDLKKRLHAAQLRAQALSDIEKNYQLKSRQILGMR
Outline: as §1

NLK = molecular target: T6, NLK (Homo sapiens, UniProt Q9UBE8)
T6 construct: purchased Reaction Biology Corp
T6 sequence (Q9UBE8 1-527): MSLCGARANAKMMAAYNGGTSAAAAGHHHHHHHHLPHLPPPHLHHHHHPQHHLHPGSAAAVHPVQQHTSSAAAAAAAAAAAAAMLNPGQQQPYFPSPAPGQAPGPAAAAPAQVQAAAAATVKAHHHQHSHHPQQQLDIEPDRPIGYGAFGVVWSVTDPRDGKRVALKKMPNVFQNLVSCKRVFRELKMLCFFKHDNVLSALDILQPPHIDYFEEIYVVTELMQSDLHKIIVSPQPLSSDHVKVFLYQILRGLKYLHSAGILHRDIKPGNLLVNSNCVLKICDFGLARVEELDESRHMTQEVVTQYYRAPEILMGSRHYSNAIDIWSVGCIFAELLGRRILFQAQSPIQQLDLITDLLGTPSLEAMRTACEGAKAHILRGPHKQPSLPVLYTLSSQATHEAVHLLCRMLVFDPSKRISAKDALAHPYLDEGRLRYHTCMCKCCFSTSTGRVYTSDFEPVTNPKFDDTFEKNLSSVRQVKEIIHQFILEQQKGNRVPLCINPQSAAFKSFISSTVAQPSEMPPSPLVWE
Outline: as §1

P38b/MAPK11 = molecular target: T7, P38b/MAPK11 (Homo sapiens, UniProt Q15759)
T7 construct: purchased Reaction Biology Corp
T7 sequence (Q15759 whole entry): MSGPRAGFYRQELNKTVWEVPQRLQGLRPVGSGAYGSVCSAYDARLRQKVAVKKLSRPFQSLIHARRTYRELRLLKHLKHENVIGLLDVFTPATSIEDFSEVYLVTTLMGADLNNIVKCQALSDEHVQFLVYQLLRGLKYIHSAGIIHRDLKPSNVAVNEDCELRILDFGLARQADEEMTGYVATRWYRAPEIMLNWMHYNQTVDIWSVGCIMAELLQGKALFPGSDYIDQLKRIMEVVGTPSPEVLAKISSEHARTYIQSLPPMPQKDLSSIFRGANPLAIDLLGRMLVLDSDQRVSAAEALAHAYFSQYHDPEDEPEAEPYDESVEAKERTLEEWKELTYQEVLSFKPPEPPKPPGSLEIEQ
Outline: as §1

PKG2/PRKG2 = molecular target: T8, PKG2/PRKG2 (Homo sapiens, UniProt Q13237)
T8 construct: purchased Reaction Biology Corp
T8 sequence (Q13237 1-762): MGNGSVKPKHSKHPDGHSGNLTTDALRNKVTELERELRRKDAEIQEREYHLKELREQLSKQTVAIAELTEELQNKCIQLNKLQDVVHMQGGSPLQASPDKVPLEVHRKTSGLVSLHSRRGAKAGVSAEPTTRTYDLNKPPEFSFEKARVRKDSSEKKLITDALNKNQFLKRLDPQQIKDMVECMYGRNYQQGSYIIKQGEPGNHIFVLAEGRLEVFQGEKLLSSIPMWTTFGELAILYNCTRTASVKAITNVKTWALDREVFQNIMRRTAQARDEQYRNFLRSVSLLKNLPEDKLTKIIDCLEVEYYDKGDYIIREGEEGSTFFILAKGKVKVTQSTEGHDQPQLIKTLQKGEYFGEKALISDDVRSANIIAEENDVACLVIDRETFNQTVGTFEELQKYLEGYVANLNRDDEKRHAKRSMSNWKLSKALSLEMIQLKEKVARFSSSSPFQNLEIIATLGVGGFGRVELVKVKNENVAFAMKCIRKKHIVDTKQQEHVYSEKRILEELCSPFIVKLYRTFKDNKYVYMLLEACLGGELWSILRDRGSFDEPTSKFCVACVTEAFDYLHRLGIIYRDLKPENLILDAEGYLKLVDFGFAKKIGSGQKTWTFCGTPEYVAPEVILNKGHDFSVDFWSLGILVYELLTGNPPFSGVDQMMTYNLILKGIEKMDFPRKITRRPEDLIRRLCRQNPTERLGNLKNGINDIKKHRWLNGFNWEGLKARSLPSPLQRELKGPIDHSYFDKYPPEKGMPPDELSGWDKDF
Outline: as §1

[1] = read-out: % Enzyme Activity (relative to DMSO controls) AVG
[2] = read-out: % Enzyme Activity (relative to DMSO controls) Data 1
[3] = read-out: % Enzyme Activity (relative to DMSO controls) Data 2

T1 sequence (Q00534 whole entry): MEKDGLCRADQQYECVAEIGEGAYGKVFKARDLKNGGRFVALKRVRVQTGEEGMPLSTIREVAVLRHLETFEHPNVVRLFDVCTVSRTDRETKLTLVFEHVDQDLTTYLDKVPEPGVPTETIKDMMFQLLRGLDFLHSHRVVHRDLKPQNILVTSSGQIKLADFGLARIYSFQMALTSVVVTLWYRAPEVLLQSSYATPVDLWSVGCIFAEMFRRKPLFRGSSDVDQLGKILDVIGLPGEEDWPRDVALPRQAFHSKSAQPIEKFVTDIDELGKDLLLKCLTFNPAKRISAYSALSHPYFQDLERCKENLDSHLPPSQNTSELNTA
T1 sequence (P30281 whole entry partner): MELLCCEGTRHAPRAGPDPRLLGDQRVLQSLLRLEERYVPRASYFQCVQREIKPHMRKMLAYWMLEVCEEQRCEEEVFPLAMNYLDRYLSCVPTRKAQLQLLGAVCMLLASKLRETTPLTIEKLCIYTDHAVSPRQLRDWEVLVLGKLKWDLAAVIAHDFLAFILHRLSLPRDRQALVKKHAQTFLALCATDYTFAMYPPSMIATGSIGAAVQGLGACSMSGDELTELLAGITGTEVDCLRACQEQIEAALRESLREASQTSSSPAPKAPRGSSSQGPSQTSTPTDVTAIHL

CC(C)(C)C(=O)N1N=CC[C@H]1c1ccccc1 [GSK′963]
remaining activity at 10 µM (CDK6/cyclin D3; [1]): 86.9% | remaining activity at 10 µM (CDK6/cyclin D3; [2]): 84.5% | remaining activity at 10 µM (CDK6/cyclin D3; [3]): 89.3% | remaining activity at 10 µM (CLK4; [1]): 100% | remaining activity at 10 µM (CLK4; [2]): 101% | remaining activity at 10 µM (CLK4; [3]): 99.8% | remaining activity at 10 µM (KDR/VEGFR2; [1]): 97.1% | remaining activity at 10 µM (KDR/VEGFR2; [2]): 96.8% | remaining activity at 10 µM (KDR/VEGFR2; [3]): 97.5% | remaining activity at 10 µM (LOK/STK10; [1]): 94% | remaining activity at 10 µM (LOK/STK10; [2]): 93.1% | remaining activity at 10 µM (LOK/STK10; [3]): 95% | remaining activity at 10 µM (NEK2; [1]): 107% | remaining activity at 10 µM (NEK2; [2]): 108% | remaining activity at 10 µM (NEK2; [3]): 106% | remaining activity at 10 µM (NLK; [1]): 112% | remaining activity at 10 µM (NLK; [2]): 111% | remaining activity at 10 µM (NLK; [3]): 112% | remaining activity at 10 µM (P38b/MAPK11; [1]): 102% | remaining activity at 10 µM (P38b/MAPK11; [2]): 104% | remaining activity at 10 µM (P38b/MAPK11; [3]): 99.3% | remaining activity at 10 µM (PKG2/PRKG2; [1]): 105% | remaining activity at 10 µM (PKG2/PRKG2; [2]): 98.2% | remaining activity at 10 µM (PKG2/PRKG2; [3]): 112%
